Results taken from patent US20250092014A1, “COMPOUNDS AND METHODS OF ACTIVATING LIPOPROTEIN LIPASE” (Metrea Biosciences, Inc., priority 2021, published 2025).

Tests used:
[1] = biological target: T1, LPL (native bovine milk protein) inactivated by ANGPTL4 (Bos taurus, UniProt P11151); assay: LPL ANGPTL4 protection assay (LPL fluorescence assay, resorufin butyrate substrate); assay type: biochemical; conditions: LPL activation activity, LPL 2.5 nM, ANGPTL4 20 nM
T1 construct: from tissue; host or cells: bovine milk (LPL); E. coli (GST-ANGPTL4)
T1 sequence (P11151 29-478): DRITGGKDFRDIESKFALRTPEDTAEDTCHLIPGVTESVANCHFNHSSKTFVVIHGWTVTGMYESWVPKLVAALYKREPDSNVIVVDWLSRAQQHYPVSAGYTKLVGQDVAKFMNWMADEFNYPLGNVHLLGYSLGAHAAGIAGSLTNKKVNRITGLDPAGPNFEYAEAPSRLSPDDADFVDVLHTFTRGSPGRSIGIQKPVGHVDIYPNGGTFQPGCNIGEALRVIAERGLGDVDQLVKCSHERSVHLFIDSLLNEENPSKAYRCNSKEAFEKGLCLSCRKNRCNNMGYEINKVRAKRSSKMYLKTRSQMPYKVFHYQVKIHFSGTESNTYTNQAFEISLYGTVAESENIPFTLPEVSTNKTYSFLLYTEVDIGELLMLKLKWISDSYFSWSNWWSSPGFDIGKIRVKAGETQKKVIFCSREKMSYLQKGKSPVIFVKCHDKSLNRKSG
Method: LPL is inactivated by angiopoietin-like 4 (ANGPTL4). Compounds of the present disclosure were for activity using the following protection assay. Briefly, the assay was performed in a black opaque 96-well microtiter plate with final volume of 100 μL using a buffer consisting of 50 mM HEPES (pH 7.2), 150 mM NaCl and 0.03% Triton X-100. Compounds were prepared as 10 mM stocks in DMSO, with subsequent serial dilutions performed in DMSO. Two microliters of test compounds were added to the microtiter plate, followed by 49-PL of LPL (native bovine milk protein affinity purified using heparin-affinity chromatography) in assay buffer. The plate contents were mixed using an orbital shaker and allowed to incubate for 5 minutes at room temperature. The enzymatic assay was initiated by the addition of a mixture of 49 μL of 50 μM resorufin butyrate (Santa Cruz #sc-208302; prepared from a 10 mM DMSO stock) and ANGPTL4 (N-terminal GST construct consisting of residues 26-164 expressed in E. coli) in assay buffer. The final concentrations of LPL and ANGPTL4 were 2.5 nM and 20 nM, respectively. The assay was allowed to proceed at 30° C. for 25 minutes with kinetic monitoring (Ex560/Em585) followed by an endpoint reading which was used for analysis.
Data was analyzed in Graphpad Prism (version 6.0, GraphPad Software, Inc., San Diego, CA) using a variable slope four parameter fit of the equation:
Y=Bottom+(Top-Bottom)/(1+10^((Log EC50−X)*HillSlope)),
where X is the concentration of test compound, Y corresponds to the amount of product expressed in relative fluorescence units, and Top and Bottom refer to the plateaus of the curve. Percent activation (protection) of test compound was calculated relative to zero effect wells (ZEW; LPL, ANGPTL4 and substrate) and maximum effect wells (MEW; LPL plus substrate): ((test well−ZEW)/(MEW−ZEW))*100.

[2] = system: C57BL/6 mice; assay: Oral fat tolerance test (postprandial triglyceridaemia after olive oil bolus); assay type: in vivo; conditions: overnight-fasted C57BL/6 mice, compound IP 1 h before 10 mL/kg olive oil, bled at 1, 2 and 3.5 h
Method: To examine to effects of test compounds on postprandial triglycerdemia, 5-7 week old C57BL/6 mice were fasted overnight (18 hours) on non-nutritive bedding (Alpha-Dri). Following the overnight fast, the mice are bled via retro-orbital sinus (25 μL) using microcapillaries (t-1 hr sample). The LPL activator test compound was then administered intraperitoneally (IP) in a dose volume of 10 ml/kg. One hour later the mice were bled for the t=0 timepoint. The mice were then immediately dosed with a 10 mL/kg oral bolus of olive oil. The mice were subsequently bled at 1-, 2-, and 3.5-hours post-olive oil administration.
Whole blood samples were collected into tubes containing 0.125% EDTA solution in saline. Diluted plasma samples were analyzed for triglyceride levels using Infinity Triglyceride reagent (Thermo) on a microtiter plate. Briefly, 10 μL of diluted sample was added the plate. 200 μL of the reagent was added and the plate was incubated for 10 minutes at 37° C. The plate was then read at 550 nm on a Molecular Devices M5 Spectrophotometer (San Jose, CA). The concentration of triglycerides in the sample was determined using a standard curve made using a dilution of triglyceride standard (Sigma-Aldrich, St. Louis, MO) using the Softmax software from Molecular Devices. All graphing and subsequent area under-the-curve and statistical analysis (Student's t Test) is performed using GraphPad Prism (version 8.0, GraphPad Software, Inc., San Diego, CA).

[3] = biological target: T2, LPL:sGPIHBPI complex (Homo sapiens, UniProt P06858); assay: VLDL assay (LPL:sGPIHBP1 pre-incubated with ANGPTL4, VLDL substrate, Amplex Red readout); assay type: biochemical; conditions: read-out: VLDL qAC50
T2 sequence (P06858 28-475): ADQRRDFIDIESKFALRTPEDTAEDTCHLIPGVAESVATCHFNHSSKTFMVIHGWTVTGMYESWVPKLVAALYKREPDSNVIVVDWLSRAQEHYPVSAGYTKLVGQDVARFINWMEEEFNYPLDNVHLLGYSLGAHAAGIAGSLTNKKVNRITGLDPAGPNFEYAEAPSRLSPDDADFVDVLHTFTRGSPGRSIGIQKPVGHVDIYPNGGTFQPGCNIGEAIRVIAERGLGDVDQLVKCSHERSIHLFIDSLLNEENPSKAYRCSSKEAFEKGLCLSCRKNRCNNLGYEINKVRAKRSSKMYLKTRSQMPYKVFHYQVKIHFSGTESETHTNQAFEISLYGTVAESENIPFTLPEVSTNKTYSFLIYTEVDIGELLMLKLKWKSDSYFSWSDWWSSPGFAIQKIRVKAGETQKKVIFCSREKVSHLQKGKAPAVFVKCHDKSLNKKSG
T2 sequence (Q8IV16 21-151 partner limits assumed): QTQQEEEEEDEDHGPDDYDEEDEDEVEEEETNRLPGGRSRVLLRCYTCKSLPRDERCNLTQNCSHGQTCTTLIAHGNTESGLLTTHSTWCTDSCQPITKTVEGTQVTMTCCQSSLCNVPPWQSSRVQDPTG
Method: The assay was performed in black I536-well plates using purified proteins. To identify compounds that stimulate LPL activity either by directly activating LPL or by inhibiting the antagonist ANGPTL4, the LPL:sGPIHBPI complex was pre-incubated with ANGPTL4 to decrease LPL activity by 80%. After a 60 min pre-incubation, the coupled enzyme system supplemented with Amplex Red reagent was added. The enzymatic reaction was started by adding the VLDL substrate. 120 min after VLDL addition, the reaction was stopped using SDS and the fluorescence intensity was measured.
40 or 45 nl of compound solution in 100% DMSO were placed in test plate. Then LPL:sGPIHBPI was added to all wells (diluted in assay buffer to 80 nM; 1 μl/well). This was followed by an addition of ANGPTL4 to compounds and neutral controls (diluted in assay buffer to 84 nM; 1 μl/well). The assay buffer was added to stimulator control (1 μl/well). Then the plates were centrifuged and pre-incubated 60 min at RT. A NEFA (1:2 diluted in PBS) supplemented with Amplex Red (40 μM was further added to all wells (1 μl/well). The reaction was then started by adding substrate to all wells (diluted in VLDL buffer to 16 Vg/ml, 1 μl/well). The plates were further centrifuged (800 rpm for 1 my) and incubated 120 m at RT (=reaction time). The reaction was then by adding SDS to all wells (diluted in water to 2.5%, 2 μl/well) and further incubated 30 mi at RT. The fluorescence intensity (ex 540 nm/em 590 nm) was measured on a Pherastar (BMG) using 20 flashes.

SMILES	EC50 [1]	hypertriglyceridemia response to oral olive oil gavage (plasma triglycerides) [2]	EC50 [3]
Cc1ccc(NC(=O)c2cc(N3Cc4cc(-c5nnn[nH]5)ccc4C3=O)ccc2N2CCCCC2)cc1 [Compound 170, 5-(1-oxo-5-(1H-tetrazol-5-yl)isoindolin-2-yl)-2-(piperidin-1-yl)-N-(p-tolyl)benzamide]	7.98 µM	blunts hypertriglyceridemia response in a dose-dependent fashion	
Cn1c(C(=O)Nc2cc(C(=O)Nc3ccccc3CC(=O)O)ccc2N2CCCCC2)cc2ccccc21 [Compound 173, 2-(2-(3-(1-methyl-1H-indole-2-carboxamido)-4-(piperidin-1-yl)benzamido)phenyl)acetic acid]	5.85 µM	blunts hypertriglyceridemia response in a dose-dependent fashion	
Cn1nc(C(=O)Nc2cc(C(=O)Nc3ccccc3CC(=O)O)ccc2N2CCCCC2)c2ccccc21 [Compound 174, 2-(2-(3-(1-methyl-1H-indazole-3-carboxamido)-4-(piperidin-1-yl)benzamido)phenyl)acetic acid]	3.99 µM	blunts hypertriglyceridemia response in a dose-dependent fashion	
CCn1nc(C(=O)Nc2cc(C(=O)Nc3ccccc3CC(=O)NS(C)(=O)=O)ccc2N2CCCCC2)c2ccccc21 [Compound 172, 1-ethyl-N-(5-((2-(2-(methylsulfonamido)-2-oxoethyl)phenyl)carbamoyl)-2-(piperidin-1-yl)phenyl)-1H-indazole-3-carboxamide]	7.5 µM	blunts hypertriglyceridemia response in a dose-dependent fashion	
Cc1ccc(NC(=O)c2cc(NCc3ccc(-c4nnn[nH]4)cc3)ccc2N2CCCCC2)cc1 [Compound 175, 5-((4-(1H-tetrazol-5-yl)benzyl)amino)-2-(piperidin-1-yl)-N-(p-tolyl)benzamide]	13.4 µM	blunts hypertriglyceridemia response in a dose-dependent fashion	
CC1CCCCN1c1ccc(C(=O)Nc2ccc(F)cc2CC(=O)O)cc1NC(=O)c1nn(CC(F)(F)F)c2ccccc12 (centres unmarked) [Example 67]			2.5 µM
O=C(O)Cc1cc(F)ccc1NC(=O)c1ccc(N2CCCCC2)c(NS(=O)(=O)c2nn(CC(F)(F)F)c3ccccc23)c1 [Compound 114, 2-(5-fluoro-2-(4-(piperidin-1-yl)-3-((1-(2,2,2-trifluoroethyl)-1H-indazole)-3-sulfonamido)benzamido)phenyl)acetic acid]			> 25 µM
Cc1ccc(NC(=O)c2cc(NC(=O)c3ccccc3C(=O)O)ccc2NC2CCCC2)cc1Cl [Compound 176, 2-((3-((3-chloro-4-methylphenyl)carbamoyl)-4-(cyclopentylamino)phenyl)carbamoyl)benzoic acid]	5.74 µM	blunts hypertriglyceridemia response in a dose-dependent fashion	
